Drawing on US20080221095A1, “Metalloprotease inhibitors containing a heterocyclic moiety” (priority 2007, published 2008), this text covers IC50 for 29 compounds.

One may read the IC50 as the point on the concentration scale where inhibition reaches its midpoint.

Common to all, as to format: biochemical
Test [1] has as its target T1, catalytic domain of MMP-13 enzyme (Homo sapiens, UniProt P45452).
T1 construct: 50 nM stock solution of catalytic domain of MMP-13 enzyme; purchased Invitek (Berlin) 30100812
The experiment in a line: Assay for determining MMP-13 inhibition (fluorescent substrate). The settings on record: read-out: MMP-13 Activity (IC50 MMP-13), Group. The procedure: Assay for Determining MMP-13 Inhibition
The typical assay for MMP-13 activity is carried out in assay buffer comprised of 50 mM Tris, pH 7.5, 150 mM NaCl, 5 mM CaCl2 and 0.05% Brij-35. Different concentrations of tested compounds are prepared in assay buffer in 50 μL aliquots. 10 μL of a 50 nM stock solution of catalytic domain of MMP-13 enzyme (produced by Alantos or commercially available from Invitek (Berlin), Cat.#30100812) is added to the compound solution. The mixture of enzyme and compound in assay buffer is thoroughly mixed and incubated for 10 min at room temperature. Upon the completion of incubation, the assay is started by addition of 40 μL of a 12.5 μM stock solution of MMP-13 fluorescent substrate (Calbiochem, Cat. No. 444235). The time-dependent increase in fluorescence is measured at the 320 nm excitation and 390 nm emission by automatic plate multireader. The IC50 values are calculated from the initial reaction rates.

The target in test [2] is T2, catalytic domain of MMP-3 enzyme (Homo sapiens, UniProt P08254).
T2 construct: 100 nM stock solution of the catalytic domain of MMP-3 enzyme (Biomol, Cat. No. SE-1 09); purchased Biomol SE-1 09
T2 sequence (P08254 100-272 limits assumed): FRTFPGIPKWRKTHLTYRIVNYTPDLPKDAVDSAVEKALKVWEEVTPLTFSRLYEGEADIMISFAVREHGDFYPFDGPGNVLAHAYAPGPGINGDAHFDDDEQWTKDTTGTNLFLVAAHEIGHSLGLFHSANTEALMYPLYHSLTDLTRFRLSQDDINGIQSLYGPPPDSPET
The experiment in a line: Assay for determining MMP-3 inhibition (fluorescent substrate). Particulars: read-out: MMP-3 Activity (IC50 MMP-3), Group. As for the experimental part:
Assay for Determining MMP-3 Inhibition
The typical assay for MMP-3 activity is carried out in assay buffer comprised of 50 mM MES, pH 6.0, 10 mM CaCl2 and 0.05% Brij-35. Different concentrations of tested compounds are prepared in assay buffer in 50 μL aliquots. 10 μL of a 100 nM stock solution of the catalytic domain of MMP-3 enzyme (Biomol, Cat. No. SE-1 09) is added to the compound solution. The mixture of enzyme and compound in assay buffer is thoroughly mixed and incubated for 10 min at room temperature. Upon the completion of incubation, the assay is started by addition of 40 μL of a 12.5 μM stock solution of NFF-3 fluorescent substrate (Calbiochem, Cat. No. 480455). The time-dependent increase in fluorescence is measured at the 330 nm excitation and 390 nm emission by an automatic plate multireader. The IC50 values are calculated from the initial reaction rates.

A further test concerns the target T3, activated MMP-8 enzyme (Homo sapiens, UniProt P22894).
T3 construct: purchased Calbiochem 444229
The experiment in a line: Assay for determining MMP-8 inhibition (fluorescent substrate). Particulars: read-out: MMP-8 Activity (IC50 MMP-8), Group. The procedure: Assay for Determining MMP-8 Inhibition
The typical assay for MMP-8 activity is carried out in assay buffer comprised of 50 mM Tris, pH 7.5, 150 mM NaCl, 5 mM CaCl2 and 0.05% Brij-35. Different concentrations of tested compounds are prepared in assay buffer in 50 μL aliquots. 10 μL of a 50 nM stock solution of activated MMP-8 enzyme (Calbiochem, Cat. No. 444229) is added to the compound solution. The mixture of enzyme and compound in assay buffer is thoroughly mixed and incubated for 10 min at 37° C. Upon the completion of incubation, the assay is started by addition of 40 μL of a 10 μM stock solution of OmniMMP fluorescent substrate (Biomol, Cat. No. P-126). The time-dependent increase in fluorescence is measured at the 320 nm excitation and 390 nm emission by an automatic plate multireader at 37° C. The IC50 values are calculated from the initial reaction rates.

T3 sequence (P22894 101-467): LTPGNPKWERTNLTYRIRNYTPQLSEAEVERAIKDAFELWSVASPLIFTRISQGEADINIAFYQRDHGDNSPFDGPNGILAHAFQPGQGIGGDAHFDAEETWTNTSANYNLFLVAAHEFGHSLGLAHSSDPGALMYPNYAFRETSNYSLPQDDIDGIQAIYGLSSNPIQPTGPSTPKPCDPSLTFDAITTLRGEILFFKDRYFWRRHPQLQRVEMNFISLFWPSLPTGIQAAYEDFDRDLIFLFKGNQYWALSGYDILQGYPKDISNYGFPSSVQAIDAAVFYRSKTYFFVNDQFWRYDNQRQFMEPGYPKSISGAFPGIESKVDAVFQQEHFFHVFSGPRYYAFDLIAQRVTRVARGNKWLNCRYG

Take `O=C1COc2cc(F)c(CNC(=O)c3nc4ccccc4c(=O)[nH]3)cc2N1` [1/25]: in test [1], the IC50 is < 100 nM.
Still for that read-out and setting: next, `O=C(NCc1ccc2c(c1)-n1cnnc1CO2)c1nc2ccccc2c(=O)[nH]1` [1/18]: < 100 nM; `Cc1sc2nc(C(=O)NCc3ccc4c(c3)-n3cnnc3CO4)[nH]c(=O)c2c1C` [1/19]: < 100 nM.
For `O=C1COc2ccc(CNC(=O)c3nc4ccccc4c(=O)[nH]3)cc2N1` [1/4], the figures for the IC50 (in test [1]; in test [2]; on activated MMP-8 enzyme) were < 100 nM, < 250 nM and < 250 nM, respectively.
Take `CC(NC(=O)c1nc2ccccc2c(=O)[nH]1)c1ccc2c(c1)NC(=O)CO2` (stereo not drawn) [1/5]: the IC50 in test [1] is 100 to 20000 nM.
The same measure, in the same setting: next, `O=C(NCc1ccc2c(c1)-n1c(noc1=O)CO2)c1nc2ccccc2c(=O)[nH]1` [1/30]: 100 to 20000 nM.
With `O=C1COc2ccc(CNC(=O)c3nc4sc5c(c4c(=O)[nH]3)CCC3(C5)OCCO3)cc2N1` [1/32], the IC50 in test [1] was < 100 nM; in test [2], < 250 nM; on activated MMP-8 enzyme, < 250 nM.
On to `Cc1ccc2nc(NC(=O)Cc3ccc4c(c3)NC(=O)CO4)[nH]c(=O)c2c1` [1/34], for which, in test [1], the IC50 lay in the range of 100 to 20000 nM.
Turning to `O=C(NCc1ccc2c(c1)NC(=S)CO2)c1nc2ccccc2c(=O)[nH]1` [1/16], the IC50 in test [1] is < 100 nM; at activated MMP-8 enzyme, 250 to 20000 nM.
For `CN1C(=O)COc2ccc(CNC(=O)c3nc4ccccc4c(=O)[nH]3)cc21` [1/8] the same measures were 100 to 20000 nM and 250 to 20000 nM.
With `Cc1sc2nc(C(=O)NCc3ccc4c(c3F)NC(=O)CO4)[nH]c(=O)c2c1C` [1/24], the IC50 in test [1] is 100 to 20000 nM.
Turning to `CC1Oc2ccc(CNC(=O)c3nc4ccccc4c(=O)[nH]3)cc2NC1=O` (stereo not drawn) [1/6], the figures for the IC50 (in test [1]; on activated MMP-8 enzyme) were < 100 nM and 250 to 20000 nM, respectively.
As for `CC1N=C(C(=O)NCc2ccc3c(c2)NC(=O)CO3)NC(=O)C1c1ccccc1` (stereo not drawn) [1/29], the IC50 in test [1] is < 100 nM; in test [2] it was 250 to 20000 nM.
Take `Cc1csc2nc(C(=O)NCc3ccc4c(c3)NC(=O)CO4)[nH]c(=O)c12` [1/9]: the IC50 in test [1] was < 100 nM; in test [2] it was < 250 nM; on activated MMP-8 enzyme it was < 250 nM.
With `Cc1sc2nc(C(=O)NCc3cnc4c(c3)NC(=O)CO4)[nH]c(=O)c2c1C` [1/15], the IC50 was < 100 nM in test [1] and 250 to 20000 nM on activated MMP-8 enzyme.
On to `O=C1COc2ccc(CNC(=O)c3ncc(-c4ccc(F)cc4)c(=O)[nH]3)cc2N1` [1/33], for which the IC50 in test [1] was < 100 nM.
With `Cc1sc2nc(C(=O)NCc3ccc4c(c3)NC(=S)CO4)[nH]c(=O)c2c1C` [1/17], the IC50 is < 100 nM in test [1] and < 250 nM on activated MMP-8 enzyme.
Regarding `O=C1COc2ccc(CNC(=O)c3nc4sc5c(c4c(=O)[nH]3)CCC3(CCN(C(=O)OCc4ccccc4)CC3)C5)cc2N1` [Example 1], the IC50 in test [1] lay in the range of 100 to 20000 nM.
Still for that read-out and setting: next, `O=C1COc2ncc(CNC(=O)c3nc4ccccc4c(=O)[nH]3)cc2N1` [1/13]: 100 to 20000 nM; `O=C1COc2ccc(CNC(=O)c3nc(-c4ccccc4)cc(=O)[nH]3)cc2N1` [1/1]: 100 to 20000 nM; `O=C1COc2c(F)cc(CNC(=O)c3nc4ccc(F)cc4c(=O)[nH]3)cc2N1` [1/11]: < 100 nM.
Take `Cc1sc2nc(C(=O)NCc3cc4c(cc3F)OCC(=O)N4)[nH]c(=O)c2c1C` [1/26]: the concentration for half-maximal inhibition (IC50) is < 100 nM in test [1] and 250 to 20000 nM at activated MMP-8 enzyme.
Turning to `Cc1nc(C(=O)NCc2ccc3c(c2)NC(=O)CO3)[nH]c(=O)c1C` [1/2], the IC50 in test [1] was < 100 nM.
Regarding `Cn1c(=O)oc2ccc(CNC(=O)c3nc4ccccc4c(=O)[nH]3)cc21` [1/7], the IC50 in test [1] is < 100 nM; at activated MMP-8 enzyme, 250 to 20000 nM.
On to `O=C1COc2ccc(CNC(=O)c3nc4ccc(F)cc4c(=O)[nH]3)c(F)c2N1` [1/23], for which, in test [1], the IC50 lay within 100 to 20000 nM.
On the same count and under the same terms, next, `O=C1COc2c(F)c(F)cc(CNC(=O)c3nc4ccccc4c(=O)[nH]3)c2N1` [1/27]: 100 to 20000 nM; `O=C1COc2c(F)cc(CNC(=O)c3nc4ccccc4c(=O)[nH]3)cc2N1` [1/10]: < 100 nM.
Consider `Cc1sc2nc(C(=O)NCc3cc(F)c4c(c3)NC(=O)CO4)[nH]c(=O)c2c1C` [1/12], for which the 50% inhibitory concentration (IC50) is < 100 nM in test [1] and < 250 nM on activated MMP-8 enzyme.
For `O=C1COc2ccc(CNC(=O)c3nc4c(c(=O)[nH]3)C3CCC4CC3)cc2N1` [Example 3] the same measures were < 100 nM and < 250 nM.
